# Assay results: paper PMC2874416 (Beilstein Journal of Organic Chemistry, 2010)
# Read-outs that look alike come from different tables or passages of the source.
# Tests used:
# α-galactosidase A = tested on: α-galactosidase A; set-up: method as in PMID 17894781, PMID 18381081, PMID 19387866, PMID 19287194; conditions: cultured Fabry patient cell lines, incubation for five days, 49 missense mutant forms; cited from earlier work
# [1] = tested on: tissue globotriaosylceramide levels; set-up: method as in PMID 19773742; conditions: mouse model; cited from earlier work
# [2] = biological target: T1, Agrobacterium sp. β-glucosidase/galactosidase (Agrobacterium sp., UniProt P12614); assay: Inhibition of Agrobacterium sp. β-glucosidase/galactosidase (Abg), Ki by kinetic studies; type: biochemical
# T1 construct: made in house
# T1 sequence (P12614 1-459): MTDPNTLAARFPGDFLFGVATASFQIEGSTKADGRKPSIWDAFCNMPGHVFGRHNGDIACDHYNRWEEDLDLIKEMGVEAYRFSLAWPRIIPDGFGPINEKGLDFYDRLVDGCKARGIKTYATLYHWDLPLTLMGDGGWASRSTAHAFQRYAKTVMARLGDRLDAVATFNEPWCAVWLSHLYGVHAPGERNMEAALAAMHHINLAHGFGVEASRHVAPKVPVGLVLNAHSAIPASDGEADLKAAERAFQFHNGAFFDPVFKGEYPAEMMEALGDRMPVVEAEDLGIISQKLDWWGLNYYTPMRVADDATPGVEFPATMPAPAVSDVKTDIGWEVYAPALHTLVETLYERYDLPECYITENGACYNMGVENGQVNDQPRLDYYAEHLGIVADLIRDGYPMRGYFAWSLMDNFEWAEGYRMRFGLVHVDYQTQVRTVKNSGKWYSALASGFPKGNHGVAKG
# Method: glycosidase was purified and assayed as described. Kinetic studies were performed at 37 °C in pH 7.0 sodium phosphate buffer (50 mM) containing 0.1 % bovine serum albumin, using 7.2 x 10-5 mg/mL enzyme. Approximate values of Ki were determined using a fixed concentration of substrate, 4-nitrophenyl β-D- […]
# times to 5 times the Ki value ultimately determined. A horizontal line drawn through […]
# an inhibitor concentration equal to -Ki. Full Ki determinations where required, were performed using the same range of inhibitor concentrations while also varying substrate (4-nitrophenyl glucoside) concentrations from approximately 0.015 mM to 0.6 mM. Data were analysed by direct fit to the Michaelis Menten equation describing reaction in the presence of inhibitors using the program GraFit. […]
# E. coli β-galactosidase = biological target: T2, E. coli β-galactosidase (Escherichia coli, UniProt P00722); assay: Inhibition of E. coli β-galactosidase, Ki by kinetic studies; type: biochemical
# T2 construct: purchased Sigma Chemicals
# Method: E. coli β-galactosidase was purchased from Sigma Chemicals. Kinetic studies were performed at 37°C in 100 mM sodium phosphate buffer, pH 7.0 containing 0.1% serum albumin. Rates of reaction were determined as a function of both varying substrate and inhibitor concentration over the concentration ranges indicated below.
# Data obtained were analysed using a nonlinear regression analysis program GraFit, p-nitrogalactopyranoside (Km = 0.03 mM), 0.045 – 0.3 mM). […]
# [3] = biological target: T3, green coffee bean α-galactosidase (Coffea arabica, UniProt Q42656); assay: Inhibition of green coffee bean α-galactosidase, Ki by kinetic studies; type: biochemical; conditions: 37 °C, pH 6.5, substrate PNP-Gal; read-out: Ki α-gal GCB
# T3 construct: made in house
# Method: Green coffee bean α-galactosidase was purified and assayed as described.
# Kinetic studies were performed at 37°C in 50 mM sodium phosphate buffer, pH 6.5 containing 0.1% serum albumin. Reactions were initiated by the addition of enzyme (final concentration = 0.3 µg/mL), bringing the total volume to 200µL. Reaction rates were measured by monitoring the release of p-nitrophenolate (λ = 400 nm, ε = […]) from PNP-Gal by means of a UNICAM 8700 UV-Vis spectrophotometer equipped with a circulating water bath. Inhibition studies were performed by varying […]
# concentrations of both PNP-Gal and inhibitor. Ki values were calculated by direct fit of the initial rates to the equation below using Grafit. […]
# [4] = tested on: β-galactosidase mutant feline fibroblast cell line; assay: Chemical chaperone activity in β-galactosidase mutant feline fibroblast cell line; type: cell-based; conditions: preliminary; for increase of enzyme activity of β-galactosidase mutant: concentration 100 µM
# [5] = biological target: T4, human lysosomal β-galactosidase (Homo sapiens, UniProt P16278); assay: Inhibition of human lysosomal β-galactosidase; type: biochemical
# T4 sequence (P16278 29-677): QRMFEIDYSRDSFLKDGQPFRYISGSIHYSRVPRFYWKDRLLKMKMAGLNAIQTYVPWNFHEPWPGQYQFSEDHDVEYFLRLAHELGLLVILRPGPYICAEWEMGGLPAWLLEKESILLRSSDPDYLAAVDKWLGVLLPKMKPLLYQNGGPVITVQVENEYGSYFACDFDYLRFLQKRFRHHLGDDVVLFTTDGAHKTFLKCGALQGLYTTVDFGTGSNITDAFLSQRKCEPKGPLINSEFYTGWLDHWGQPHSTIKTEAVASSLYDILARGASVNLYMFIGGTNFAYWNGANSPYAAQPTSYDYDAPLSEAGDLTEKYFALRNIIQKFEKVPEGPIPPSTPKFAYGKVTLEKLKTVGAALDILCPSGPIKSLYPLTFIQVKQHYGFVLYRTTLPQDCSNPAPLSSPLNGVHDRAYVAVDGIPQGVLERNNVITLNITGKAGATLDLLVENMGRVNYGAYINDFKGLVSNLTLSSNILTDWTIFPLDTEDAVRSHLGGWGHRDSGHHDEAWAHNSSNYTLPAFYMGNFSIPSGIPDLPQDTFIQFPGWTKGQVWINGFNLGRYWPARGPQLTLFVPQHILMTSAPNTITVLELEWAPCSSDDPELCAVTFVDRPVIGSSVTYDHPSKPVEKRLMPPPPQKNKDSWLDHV
# β-galactosidase = tested on: β-galactosidase; set-up: method as in PMID 19812739; conditions: GM1-gangliosidosis model mice, orally administered; cited from earlier work
# [6] = 37 °C, pH 7.0, read-out: Ki β-gal E. coli
# T2 sequence (P00722 2-1024 limits assumed): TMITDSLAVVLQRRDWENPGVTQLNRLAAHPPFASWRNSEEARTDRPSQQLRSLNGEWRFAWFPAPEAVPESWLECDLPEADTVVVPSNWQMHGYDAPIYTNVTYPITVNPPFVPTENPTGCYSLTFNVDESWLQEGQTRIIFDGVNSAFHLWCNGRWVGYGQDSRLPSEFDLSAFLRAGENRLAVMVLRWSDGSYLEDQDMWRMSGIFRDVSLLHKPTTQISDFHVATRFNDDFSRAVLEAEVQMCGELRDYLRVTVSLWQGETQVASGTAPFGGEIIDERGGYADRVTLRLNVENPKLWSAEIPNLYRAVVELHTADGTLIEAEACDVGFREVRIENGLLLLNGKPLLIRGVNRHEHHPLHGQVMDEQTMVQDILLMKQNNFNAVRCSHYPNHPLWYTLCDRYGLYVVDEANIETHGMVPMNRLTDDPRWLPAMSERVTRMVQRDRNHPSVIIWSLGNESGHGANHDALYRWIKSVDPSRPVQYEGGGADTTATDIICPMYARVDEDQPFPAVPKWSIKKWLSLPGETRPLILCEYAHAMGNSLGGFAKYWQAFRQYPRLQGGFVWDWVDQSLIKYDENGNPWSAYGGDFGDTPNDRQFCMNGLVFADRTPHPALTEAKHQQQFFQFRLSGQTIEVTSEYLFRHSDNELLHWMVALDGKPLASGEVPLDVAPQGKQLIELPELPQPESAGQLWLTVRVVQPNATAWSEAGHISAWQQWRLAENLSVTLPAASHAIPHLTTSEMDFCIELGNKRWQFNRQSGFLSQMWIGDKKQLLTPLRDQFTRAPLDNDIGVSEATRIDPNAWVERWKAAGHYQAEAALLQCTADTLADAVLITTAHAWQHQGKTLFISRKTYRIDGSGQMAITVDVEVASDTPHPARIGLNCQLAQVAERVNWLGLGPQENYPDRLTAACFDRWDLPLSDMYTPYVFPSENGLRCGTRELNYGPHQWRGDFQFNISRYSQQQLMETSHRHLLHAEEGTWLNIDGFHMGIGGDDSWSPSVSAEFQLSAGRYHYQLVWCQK
# T3 sequence (Q42656 16-378): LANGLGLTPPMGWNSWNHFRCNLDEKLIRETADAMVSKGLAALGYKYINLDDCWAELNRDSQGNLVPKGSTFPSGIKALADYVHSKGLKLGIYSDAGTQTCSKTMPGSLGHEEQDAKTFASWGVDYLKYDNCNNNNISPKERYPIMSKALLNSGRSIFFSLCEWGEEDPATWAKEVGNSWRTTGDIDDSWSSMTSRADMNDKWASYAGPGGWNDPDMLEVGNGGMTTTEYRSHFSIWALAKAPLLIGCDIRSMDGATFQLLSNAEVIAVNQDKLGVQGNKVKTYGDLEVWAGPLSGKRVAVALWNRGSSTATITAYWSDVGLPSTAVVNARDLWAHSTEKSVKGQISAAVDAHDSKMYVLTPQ
Structure (SMILES),Ki [2] [µM],Ki [3] [µM],Ki (E. coli β-galactosidase; [6]) [µM],also measured
"OC[C@H]1NC[C@H](O)[C@@H](O)[C@H]1O [Compound 4, 1-Deoxygalactonojirimycin]",–,–,–,increase of α-galactosidase A levels (α-galactosidase A): 1.5 to 28 fold; tissue globotriaosylceramide levels [1]: reduce tissue globotriaosylceramide levels
CC(C)c1ccc(C(=O)NCCCCCCN2C[C@H](O)[C@@H](O)[C@@H](O)[C@H]2CO)cc1 [Compound 16],13,2.6,–,Ki (E. coli β-galactosidase): 1.3 µM
O=C(NCCCCCCN1C[C@H](O)[C@@H](O)[C@@H](O)[C@H]1CO)c1cccnc1 [Compound 17],1.5,2.2,0.83,increase of enzyme activity of β-galactosidase mutant [4]: up to 5.5 fold
CN(C)c1ccc(C(=O)NCCCCCCN2C[C@H](O)[C@@H](O)[C@@H](O)[C@H]2CO)cc1 [Compound 18],3.8,0.49,1.1,increase of relative enzyme activity of β-galactosidase mutant ([4]; concentration 2 µM): 4.8 fold
O=C(CCCc1ccc2ccc3cccc4ccc1c2c34)NCCCCCCN1C[C@H](O)[C@@H](O)[C@@H](O)C1CO (stereo partly shown) [Compound 19],0.06,7,–,Ki (E. coli β-galactosidase): 0.25 µM
CC(C)(C)OC(=O)NCCCCCCN1C[C@H](O)[C@@H](O)[C@@H](O)[C@H]1CO [Compound 20],–,4.3,2.4,"Ki ([2]; read-out: Ki β-glu/gal Abg, 37 °C, pH 7.0, substrate 4-nitrophenyl β-D-glucopyranoside): 3 µM; IC50 [5]: 10.9 µM; Ki [5]: 2 µM"
O=C(NCCCCCCN1C[C@H](O)[C@@H](O)[C@@H](O)[C@H]1CO)OCc1ccccc1 [Compound 22],6,2.2,0.4,IC50 [5]: 3.26 µM; Ki [5]: 0.72 µM; increase of enzyme activity of β-galactosidase mutant [4]: up to 5.5 fold
CCCCCCCCN[C@@H]1C=C(CO)[C@H](O)[C@H](O)[C@H]1O [N-octyl-4-epi-β-valienamine],–,–,–,β-galactosidase activity in brain after oral administration (β-galactosidase): enhancing β-galactosidase activity
